Measured values from PubChem BioAssay (NCI).
Values joined by “and” are separate entries in the source; they are usually repeats but may differ in a detail not shown here. Equal entries are not always repeated.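 Exposure lasted 48 hours, with cells grown in 96-well plates and compounds tested at five concentrations. GI50: concentration for 50% inhibition of growth. TGI: total growth inhibition.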

What was measured:
Assay in all cases: NCI tumour cell line growth inhibition, 48 h
SR leukemia = system: SR leukemia
LOX IMVI melanoma = system: LOX IMVI melanoma
HCT-15 colon = system: HCT-15 colon
SF-295 CNS = system: SF-295 CNS
HCT-116 colon = system: HCT-116 colon
CCRF-CEM leukemia = system: CCRF-CEM leukemia
UACC-257 melanoma = system: UACC-257 melanoma
EKVX NSCLC = system: EKVX NSCLC
MOLT-4 leukemia = system: MOLT-4 leukemia
RPMI-8226 leukemia = system: RPMI-8226 leukemia

| Structure (SMILES) | TGI (SR leukemia) | TGI (LOX IMVI melanoma) | TGI (HCT-15 colon) | TGI (SF-295 CNS) | TGI (HCT-116 colon) | TGI (CCRF-CEM leukemia) | TGI (UACC-257 melanoma) | TGI (EKVX NSCLC) | TGI (MOLT-4 leukemia) | TGI (RPMI-8226 leukemia) | GI50 (SR leukemia) | GI50 (LOX IMVI melanoma) | GI50 (HCT-15 colon) | GI50 (SF-295 CNS) | GI50 (HCT-116 colon) | GI50 (CCRF-CEM leukemia) | GI50 (UACC-257 melanoma) | GI50 (EKVX NSCLC) | GI50 (MOLT-4 leukemia) | GI50 (RPMI-8226 leukemia) |
| --- | --- | --- | --- | --- | --- | --- | --- | --- | --- | --- | --- | --- | --- | --- | --- | --- | --- | --- | --- | --- |
| O=[N+]([O-])c1nccn1COCCF | > 100 µM | > 100 µM | > 100 µM | > 100 µM | > 100 µM | > 100 µM | > 100 µM | > 100 µM | > 100 µM | > 100 µM |  |  |  |  |  |  |  |  |  |  |
| CCN(CC)C(=O)COc1ccc(Br)cc1Br | > 100 µM | > 100 µM | > 100 µM | > 100 µM | > 100 µM | > 100 µM | > 100 µM | 58 µM | > 100 µM | > 100 µM |  |  |  |  |  |  |  |  |  |  |
| COc1ccc(-c2ccc(C3CC(c4ccc(Cl)cc4)=NN3)o2)c([N+](=O)[O-])c1 (stereo not given) | > 100 µM | > 100 µM | > 100 µM | > 100 µM | > 100 µM | > 100 µM | > 100 µM | > 100 µM | > 100 µM | > 100 µM | > 100 µM | > 100 µM | > 100 µM | 43.5 µM | > 100 µM | > 100 µM | > 100 µM | > 100 µM | > 100 µM | > 100 µM |
| CCOC(=O)/C(=C/c1ccc(C#N)cc1)N(CC)CC | > 100 µM | > 100 µM | > 100 µM | 30 µM | > 100 µM | > 100 µM | > 100 µM | > 100 µM | > 100 µM | > 100 µM |  |  |  |  |  |  |  |  |  |  |
| CO[C@@H]1[C@H](OC(=O)NC(=O)CCl)CC[C@]2(CO2)[C@H]1[C@@]1(C)O[C@@H]1CC=C(C)C | 39.4 µM | 25.2 µM and 34.6 µM | 56.1 µM and 35.7 µM | 18.7 µM and 38 µM | 28.7 µM and 40.9 µM | 18 µM and 28.4 µM | 28 µM | 35.8 µM and 52.4 µM | 28.2 µM and 8.2 µM | 32.9 µM and 51.4 µM | 6.76 µM | 2.76 µM | 5.15 µM | 6.62 µM and 4.21 µM | 2.77 µM and 11.2 µM and 2.96 µM | 1.98 µM and 5.49 µM | 8.41 µM | 22.4 µM | 3.31 µM | 5.73 µM and 6.14 µM |
| C[C@H]1[C@H](C)CC[C@]2(C(=O)O)CC[C@]3(C)C(=CC[C@@H]4[C@@]5(C)C/C(=C/c6ccco6)C(=O)C(C)(C)[C@@H]5CC[C@]43C)[C@H]12 | 50.8 µM | 17 µM | 12.1 µM | 15.5 µM | 11.7 µM | 16.8 µM | 29.1 µM | 15.4 µM | 14 µM | 15.7 µM | 4.12 µM | 4.51 µM | 2.95 µM | 3.72 µM | 3.1 µM | 3.52 µM | 6.49 µM | 3.69 µM | 3.17 µM | 2.83 µM |
| CCCCCCCC[N+](C)(CCCCCCCC)CCCCCCCC | 0.408 µM | 0.709 µM | 2.1 µM | 0.826 µM | 1.24 µM | 0.525 µM | 1.15 µM | 0.788 µM | 1.37 µM | 0.242 µM | 0.165 µM | 0.247 µM | 0.715 µM | 0.261 µM | 0.272 µM | 0.189 µM | 0.37 µM | 0.19 µM | 0.324 µM | 0.0463 µM |
